System: lipase
Assay: Lipase activity retention in detergent use solution (4000 ppm, 5 GPG water; p-nitrophenyl valerate, TRIS buffer pH 8.0)
Type: biochemical
Conditions: for Relative Lipase Enzyme Activity in a Use Solution of the All Ash Detergent Composition: Table 6F, 120º F.; for Relative Lipase Enzyme Activity: base formula
Procedure: The enzyme […] collected up to 4 hours, after a use solution was generated from the detergent composition. During the tests, the samples at different time points were collected and immediately frozen in an acetone/dry ice bath and stored in −80° C. before the activity of the enzyme was evaluated. For the use of such an assay, t=0 min was the reference point for 100% enzyme activity.
Assays of enzyme activity in formulations (% retention) were conducted to simulate a presoak condition in a beaker using the chemistry, temperature, and pH conditions relevant to manual warewash or presoak applications. Enzyme activity is an indicator of the stability of the enzyme in the detergent, specifically in an aqueous use solution within a sump (which is under conditions of high pH, temperature and dilution).
Enzyme activity under presoak or manual warewash conditions was traced quantitatively using a standard protease assay. Samples were prepared under bench top conditions, whereby the use solution from a detergent composition or detergent was obtained and maintained at a presoak or manual warewash temperature in a stirring water bath. After the time course for assessing enzyme stability is initiated, aliquots were taken at various time points and flash-frozen. A time=0 sample was prepared for each series by dissolving the detergent formulation at room temperature, mixing thoroughly, and flash freezing. Samples were thawed and diluted as necessary in an assay buffer usually for use in the protease assay. A glycine buffer at pH 9.0 is used here. The assay monitored the direct reaction of the protease on a small, commercially available peptidyl substrate, with liberation of the product providing correlation to the active enzyme content. The product was detected using a plate reader with an appreciable dynamic range (upper absorbance limit of the instrument >3.5). Enzyme activity levels were assessed relative to a calibration curve with average values for replicate tests used to map protease stability under presoak or manual warewash use conditions. Enzyme retention at each time point was calculated as the % enzyme activity relative to the time=0 sample.
The analysis by lipase and amylase assay was conducted similarly, except with a different substrate and buffers. For lipase activity, the substrate is p-nitrophenyl valerate, and for amylase, the substrate is an ethylidene substrate (EPS). The buffer used in lipase assay is TRIS (Tris(hydroxymethyl)aminomethane) buffer at pH 8.0, and in amylase assay HEPES (4-(2-hydroxyethyl)-1-piperazineethanesulfonic acid) buffer at pH 8.0.

`O=P(O)(O)CN(CP(=O)(O)O)CP(=O)(O)O` [ATMP, Aminotri (methylene phosphonic acid)] was tested, and the “Relative Lipase Enzyme Activity in a Use Solution of the All Ash Detergent Composition” value (all ash formula, phosphonate 0.3 wt-%, time 0 min) was 100.00%, the “Relative Lipase Enzyme Activity in a Use Solution of the All Ash Detergent Composition” value (all ash formula, phosphonate 0.3 wt-%, time 5 min) was 61.64% and the “Relative Lipase Enzyme Activity in a Use Solution of the All Ash Detergent Composition” value (all ash formula, phosphonate 0.3 wt-%, time 10 min) was 63.66%. The “Relative Lipase Enzyme Activity in a Use Solution of the All Ash Detergent Composition” value (all ash formula, phosphonate 0.3 wt-%, time 20 min) was 54.08%, the “Relative Lipase Enzyme Activity in a Use Solution of the All Ash Detergent Composition” value (all ash formula, phosphonate 0.3 wt-%, time 40 min) was 41.20% and the “Relative Lipase Enzyme Activity in a Use Solution of the All Ash Detergent Composition” value (all ash formula, phosphonate 0.3 wt-%, time 60 min) was 36.19%. The “Relative Lipase Enzyme Activity in a Use Solution of the All Ash Detergent Composition” value (all ash formula, phosphonate 0.3 wt-%, time 90 min) was 30.66%, the “Relative Lipase Enzyme Activity in a Use Solution of the All Ash Detergent Composition” value (all ash formula, phosphonate 0.3 wt-%, time 120 min) was 19.17% and the “Relative Lipase Enzyme Activity in a Use Solution of the All Ash Detergent Composition” value (all ash formula, phosphonate 0.3 wt-%, time 150 min) was 23.54%. For the same molecule, the “Relative Lipase Enzyme Activity in a Use Solution of the All Ash Detergent Composition” value (all ash formula, phosphonate 0.3 wt-%, time 180 min) was 14.43%, the “Relative Lipase Enzyme Activity in a Use Solution of the All Ash Detergent Composition” value (all ash formula, phosphonate 0.3 wt-%, time 210 min) was 13.63% and the “Relative Lipase Enzyme Activity in a Use Solution of the All Ash Detergent Composition” value (all ash formula, phosphonate 0.3 wt-%, time 240 min) was 12.97%. For the same molecule, the “lipase stability in all ash formula” value (all ash formula, versus same composition with PBTC or HEDP without amine(s), FIG. 6G) was “more stable”, the “Relative Lipase Enzyme Activity” value (phosphonate 0.3 wt-%, use solution at 120° F., time 0 min) was 100.00% and the “Relative Lipase Enzyme Activity” value (phosphonate 0.3 wt-%, use solution at 120° F., time 5 min) was 79.77%. The “Relative Lipase Enzyme Activity” value (phosphonate 0.3 wt-%, use solution at 120° F., time 10 min) was 71.10%, the “Relative Lipase Enzyme Activity” value (phosphonate 0.3 wt-%, use solution at 120° F., time 20 min) was 62.47% and the “Relative Lipase Enzyme Activity” value (phosphonate 0.3 wt-%, use solution at 120° F., time 40 min) was 39.28%. The “Relative Lipase Enzyme Activity” value (phosphonate 0.3 wt-%, use solution at 120° F., time 60 min) was 34.01%, the “Relative Lipase Enzyme Activity” value (phosphonate 0.3 wt-%, use solution at 120° F., time 90 min) was 26.70% and the “Relative Lipase Enzyme Activity” value (phosphonate 0.3 wt-%, use solution at 120° F., time 120 min) was 22.13%. The “Relative Lipase Enzyme Activity” value (phosphonate 0.3 wt-%, use solution at 120° F., time 150 min) was 19.07%, the “Relative Lipase Enzyme Activity” value (phosphonate 0.3 wt-%, use solution at 120° F., time 180 min) was 17.48% and the “Relative Lipase Enzyme Activity” value (phosphonate 0.3 wt-%, use solution at 120° F., time 210 min) was 15.49%. The “Relative Lipase Enzyme Activity” value (phosphonate 0.3 wt-%, use solution at 120° F., time 240 min) was 14.68%, the “Relative Lipase Enzyme Activity” value (phosphonate 0.6 wt-%, use solution at 120º F., time 0 min) was 100.00% and the “Relative Lipase Enzyme Activity” value (phosphonate 0.6 wt-%, use solution at 120º F., time 5 min) was 93.26%. For the same molecule, the “Relative Lipase Enzyme Activity” value (phosphonate 0.6 wt-%, use solution at 120º F., time 10 min) was 87.80%, the “Relative Lipase Enzyme Activity” value (phosphonate 0.6 wt-%, use solution at 120º F., time 20 min) was 81.36% and the “Relative Lipase Enzyme Activity” value (phosphonate 0.6 wt-%, use solution at 120º F., time 40 min) was 60.03%. The “Relative Lipase Enzyme Activity” value (phosphonate 0.6 wt-%, use solution at 120º F., time 60 min) was 56.12%, the “Relative Lipase Enzyme Activity” value (phosphonate 0.6 wt-%, use solution at 120º F., time 90 min) was 49.58% and the “Relative Lipase Enzyme Activity” value (phosphonate 0.6 wt-%, use solution at 120º F., time 120 min) was 42.20%. For the same molecule, the “Relative Lipase Enzyme Activity” value (phosphonate 0.6 wt-%, use solution at 120º F., time 150 min) was 37.91%, the “Relative Lipase Enzyme Activity” value (phosphonate 0.6 wt-%, use solution at 120º F., time 180 min) was 33.77% and the “Relative Lipase Enzyme Activity” value (phosphonate 0.6 wt-%, use solution at 120º F., time 210 min) was 32.19%. The “Relative Lipase Enzyme Activity” value (phosphonate 0.6 wt-%, use solution at 120º F., time 240 min) was 29.80%, the “Relative Lipase Enzyme Activity” value (phosphonate at 0.1% elemental phosphorus, at 120º F. or at room temperature (as titled), time 0 min) was 100.00% and the “Relative Lipase Enzyme Activity” value (phosphonate at 0.1% elemental phosphorus, at 120º F. or at room temperature (as titled), time 5 min) was 82.14%. The “Relative Lipase Enzyme Activity” value (phosphonate at 0.1% elemental phosphorus, at 120º F. or at room temperature (as titled), time 10 min) was 78.45%, the “Relative Lipase Enzyme Activity” value (phosphonate at 0.1% elemental phosphorus, at 120º F. or at room temperature (as titled), time 20 min) was 64.87% and the “Relative Lipase Enzyme Activity” value (phosphonate at 0.1% elemental phosphorus, at 120º F. or at room temperature (as titled), time 40 min) was 45.84%. For the same molecule, the “Relative Lipase Enzyme Activity” value (phosphonate at 0.1% elemental phosphorus, at 120º F. or at room temperature (as titled), time 60 min) was 37.66%, the “Relative Lipase Enzyme Activity” value (phosphonate at 0.1% elemental phosphorus, at 120º F. or at room temperature (as titled), time 90 min) was 30.16% and the “Relative Lipase Enzyme Activity” value (phosphonate at 0.1% elemental phosphorus, at 120º F. or at room temperature (as titled), time 120 min) was 25.91%. The “Relative Lipase Enzyme Activity” value (phosphonate at 0.1% elemental phosphorus, at 120º F. or at room temperature (as titled), time 150 min) was 21.51%, the “Relative Lipase Enzyme Activity” value (phosphonate at 0.1% elemental phosphorus, at 120º F. or at room temperature (as titled), time 180 min) was 15.43% and the “Relative Lipase Enzyme Activity” value (phosphonate at 0.1% elemental phosphorus, at 120º F. or at room temperature (as titled), time 210 min) was 17.94%. The “Relative Lipase Enzyme Activity” value (phosphonate at 0.1% elemental phosphorus, at 120º F. or at room temperature (as titled), time 240 min) was 15.64%.
